What was measured:
MCF-7 cells = test: Combination index / drug interaction (CompuSyn, Chou-Talalay), MCF-7; type: cell-based, human
Description: IC50 values were calculated using GraphPad Prism software.
According to the theory of T. C.

MDA-MB-231 cells = settings: Glibenclamide alone; inhibiting the G1-S phase progression without inducing cell death or differentiation; cited from earlier work
U-87 μMG cells = test: MTT cytotoxicity assay, U-87 μMG; settings: Homo sapiens, U-87 MG, read-out: U-87 μMG cell survival
Description: Glimepiride and its analogs were first prepared as a stock solution in DMSO, and then the drugs were dissolved fresh in culture medium enriched with Tween 80 (final concentration 0.05%).
Human cancer cells (MCF-7, A549 and U-87 μMG) and normal endothelial cells (HMEC-1) were obtained from American Type Cell Culture (Rockville, MD). The cancer cell lines (MCF-7, A549 and U-87 μMG) were cultured as monolayers in Dulbecco's modified Eagle's medium supplemented with 10% (v/v) fetal bovine serum and 1% (v/v) penicillin/streptomycin mixture (10,000 U/mL penicillin and 10 mg/mL streptomycin) in a 100% humidified atmosphere of 5% CO2 and 95% air at 37 °C. […]
The cytotoxic activity of the test compounds against cancer cell lines was tested using the standard MTT (3-(4,5-dimethylthiazol-2-yl)-2,5-diphenyltetrazolium bromide) colorimetric assay. […] Plates were gently shaken at room temperature until the formazan was completely dissolved and read at 540 nm using a microplate reader. With the XTT method, there is no dissolution step in DMSO (XTT is reduced to a highly water-soluble, orange product instead of the insoluble formazan), and the plate is read at 450 nm. […] IC50 values were calculated using GraphPad Prism software. […]
All data are expressed as mean±standard deviation (SD) and presented as a percentage of control (untreated cells) taken as 100%, n=3 (or more). […]

gliomas = settings: cited from earlier work
[1] = weekly doses of 20 mg/m^2; cited from earlier work
[2] = analog 100-500 μM with Doxorubicin 0.225-0.900 μM, over a wide range of dose combinations

SMILES: Cc1ccc(S(=O)(=O)NC(=O)NN2CC3CCCC3C2)cc1 (stereo not drawn) [Gliclazide, 1-(3,3a,4,5,6,6a-hexahydro-1H-cyclopenta[c]pyrrol-2-yl)-3-(4-methylphenyl) sulfonylurea]
- drug interaction with Doxorubicin (MCF-7 cells; [2]): strong or very strong synergy

SMILES: COc1ccc(Cl)cc1C(=O)NCCc1ccc(S(=O)(=O)NC(=O)NC2CCCCC2)cc1 [Glyburide]
- drug interaction with Doxorubicin (MCF-7 cells; [2]): strong or very strong synergy
- effect in MDA-MB-231 cells (MDA-MB-231 cells): cytostatic effect

SMILES: CCCNC(=O)NS(=O)(=O)c1ccc(Cl)cc1 [Chlorpropamide, 1-(4-chlorophenyl) sulfonyl-3-propylurea]
- drug interaction with Doxorubicin (MCF-7 cells; [2]): strong or very strong synergy

SMILES: COc1cccc2c1C(=O)c1c(O)c3c(c(O)c1C2=O)C[C@@](O)(C(=O)CO)C[C@@H]3O[C@H]1C[C@H](N)[C@H](O)[C@H](C)O1 [Doxorubicin, (7S,9S)-7-[(2R,4S,5S,6S)-4-amino-5-hydroxy-6 methyloxan-2-yl]oxy-6,9,11-trihydroxy-9-(2-hydroxyacetyl)-4-methoxy-8,10-dihydro-7H tetracene-5,12-dione]
- viability at 0.52 µM (U-87 μMG cells): 75.6%
- clinical results vs systemic administration (gliomas; intracerebral administration, stage III or IV gliomas, Ommaya reservoir): Significantly better results
- clinical efficacy in certain brain tumors, such as gliomas (gliomas; systemic administration): very limited efficacy
- neurotoxicity (gliomas; very high systemic doses): highly neurotoxic
- incidence of congestive heart failure [1]: lower incidence of congestive heart failure

SMILES: COc1ccc2c(c1)C(=O)N(CCc1ccc(S(=O)(=O)NC(=O)NC3CCCCC3)cc1)C(=O)C2(C)C [Gliquidone]
- drug interaction with Doxorubicin (MCF-7 cells; 100 μM analog in combination with Doxorubicin (0.225-0.900 μM)): additive effect or slight antagonism
- drug interaction with Doxorubicin (MCF-7 cells; Gliquidone with Doxorubicin, dose combinations other than 100 μM): synergistic effects

SMILES: Cc1ccc(S(=O)(=O)NC(=O)NN2CCCCCC2)cc1 [Tolazamide, 1-(azepan-1-yl)-3-(4-methylphenyl) sulfonylurea]
- drug interaction with Doxorubicin (MCF-7 cells; [2]): strong or very strong synergy
